According to PubChem BioAssay AID651861 (The Scripps Research Institute Molecular Screening Center, 2012):

Legend:
Assay in all cases: binding mode on PAD1, PAD2, PAD3, biochemical, colorimetric, substrate dialysis, late-stage follow-up (AID 651861); call rule not given here
[1] = target: Protein-arginine deiminase type-1 (Homo sapiens) (UniProt Q9ULC6); details: recombinant PAD1-3, post-dialysis BAEE citrulline colorimetric; PAD1; at 100 µM; active compounds read low
[2] = target: Protein-arginine deiminase type-2 (Homo sapiens) (UniProt Q9Y2J8); details: recombinant PAD1-3, post-dialysis BAEE citrulline colorimetric; PAD2; at 100 µM; active compounds read low
Chain of Protein-arginine deiminase type-2 (Homo sapiens) (Q9Y2J8 whole entry, looked up): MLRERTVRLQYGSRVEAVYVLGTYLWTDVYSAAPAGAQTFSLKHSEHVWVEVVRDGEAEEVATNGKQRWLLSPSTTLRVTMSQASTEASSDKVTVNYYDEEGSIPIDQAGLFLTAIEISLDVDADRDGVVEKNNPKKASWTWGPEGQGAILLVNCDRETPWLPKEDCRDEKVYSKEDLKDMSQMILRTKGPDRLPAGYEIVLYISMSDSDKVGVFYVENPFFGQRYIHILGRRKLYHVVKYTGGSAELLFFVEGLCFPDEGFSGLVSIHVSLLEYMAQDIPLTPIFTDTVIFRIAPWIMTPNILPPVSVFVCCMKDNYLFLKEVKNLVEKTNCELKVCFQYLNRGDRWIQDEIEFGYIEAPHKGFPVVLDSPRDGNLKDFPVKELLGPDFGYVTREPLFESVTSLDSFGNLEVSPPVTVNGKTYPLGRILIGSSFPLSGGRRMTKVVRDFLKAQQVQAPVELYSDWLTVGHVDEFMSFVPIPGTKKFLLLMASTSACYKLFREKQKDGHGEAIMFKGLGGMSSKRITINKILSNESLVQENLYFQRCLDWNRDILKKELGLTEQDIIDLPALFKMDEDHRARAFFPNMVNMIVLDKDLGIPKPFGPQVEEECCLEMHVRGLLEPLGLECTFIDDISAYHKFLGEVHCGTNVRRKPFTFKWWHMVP

[3] = target: Protein-arginine deiminase type-3 (Homo sapiens) (UniProt Q9ULW8); details: recombinant PAD1-3, post-dialysis BAEE citrulline colorimetric; PAD3; at 100 µM; active compounds read low
Chain of Protein-arginine deiminase type-3 (Homo sapiens) (Q9ULW8 whole entry, looked up): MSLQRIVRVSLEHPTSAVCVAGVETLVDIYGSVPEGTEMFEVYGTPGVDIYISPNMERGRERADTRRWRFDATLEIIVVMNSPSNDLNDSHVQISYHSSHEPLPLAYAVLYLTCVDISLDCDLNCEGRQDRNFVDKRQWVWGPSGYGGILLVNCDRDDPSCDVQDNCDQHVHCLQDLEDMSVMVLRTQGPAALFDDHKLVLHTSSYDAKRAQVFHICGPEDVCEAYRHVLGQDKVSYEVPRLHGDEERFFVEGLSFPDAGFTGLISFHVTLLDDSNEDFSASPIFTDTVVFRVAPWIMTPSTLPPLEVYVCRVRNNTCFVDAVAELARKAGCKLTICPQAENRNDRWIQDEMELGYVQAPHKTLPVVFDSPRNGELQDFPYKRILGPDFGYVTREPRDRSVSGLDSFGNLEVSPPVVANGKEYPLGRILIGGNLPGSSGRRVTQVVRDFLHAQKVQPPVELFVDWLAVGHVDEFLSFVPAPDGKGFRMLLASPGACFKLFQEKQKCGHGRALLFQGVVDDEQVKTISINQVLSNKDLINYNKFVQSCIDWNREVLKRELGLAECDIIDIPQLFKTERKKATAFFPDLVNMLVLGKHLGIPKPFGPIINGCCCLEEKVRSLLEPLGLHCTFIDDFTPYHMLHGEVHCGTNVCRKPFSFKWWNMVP

Measured: residual activity after dialysis

Chain of Protein-arginine deiminase type-1 (Homo sapiens) (Q9ULC6 whole entry, looked up): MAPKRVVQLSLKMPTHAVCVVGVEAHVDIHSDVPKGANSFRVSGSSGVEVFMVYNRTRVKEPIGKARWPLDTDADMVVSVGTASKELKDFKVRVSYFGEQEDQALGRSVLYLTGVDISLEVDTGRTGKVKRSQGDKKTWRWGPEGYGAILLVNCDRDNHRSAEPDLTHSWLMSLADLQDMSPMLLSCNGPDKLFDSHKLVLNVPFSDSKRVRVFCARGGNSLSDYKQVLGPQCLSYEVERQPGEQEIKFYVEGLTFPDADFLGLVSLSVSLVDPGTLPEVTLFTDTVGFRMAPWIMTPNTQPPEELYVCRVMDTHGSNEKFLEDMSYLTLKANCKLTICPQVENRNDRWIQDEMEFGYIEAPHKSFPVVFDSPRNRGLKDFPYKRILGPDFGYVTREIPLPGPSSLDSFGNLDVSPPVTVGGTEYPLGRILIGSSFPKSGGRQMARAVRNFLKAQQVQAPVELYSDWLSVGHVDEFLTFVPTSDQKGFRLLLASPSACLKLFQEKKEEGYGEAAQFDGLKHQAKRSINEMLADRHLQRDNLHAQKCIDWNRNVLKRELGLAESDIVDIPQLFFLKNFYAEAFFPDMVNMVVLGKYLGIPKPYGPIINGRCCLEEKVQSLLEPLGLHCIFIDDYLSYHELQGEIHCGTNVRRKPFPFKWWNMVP

NC1=CC(=O)c2ccc(-c3cccc(C(=O)O)n3)nc2C1=O
active: [1] 10.2% | [2] 5.3% | [3] 1.2%
